# In patent US10925858B2, “S-nitrosoglutathione (GSNO) and GSNO reductase inhibitors for use in therapy” (MUSC FOUNDATION FOR RESEARCH DEVELOPMENT, priority 2017, dated 2021):
# Key:
# [1] = system: hBMVECs; assay: Assay of trans-endothelial electrical resistance (TEER) in thrombin treated hBMVECs; assay type: cell-based, human; conditions: thrombin 0.1 unit/ml; GSNO 100 μM or SIN-1 500 μM pretreated 2 hr
# Experimental: Cell culture: Primary human brain microvascular endothelial cells (hBMVECs) were purchased from Angio-Proteomie (Cat #: cAP-0002, Atlanta, Ga.). The cells were cultured in cell culture flasks or plates precoated with Quick Coating Solution (Angio-Proteomie; Cat #: cAP-01) and maintained in Endothelial Growth Medium (Angio-Proteomie; Cat #: cAP-02) at 37° C. under 5% CO2/95% air. When the cells were almost confluent, the medium was replaced with endothelial basal medium (Angio-Proteomie; Cat #: cAP-03) containing 0.5% fetal bovine serum (FBS; Life Technologies, Grand Island, N.Y.) about 8-12 hours before the experiment. No institutional approval was required for this study. The study was not pre-registered. For evaluation of the endothelial barrier function, hBMVECs were plated on fibronectin-coated polycarbonate filters (Transwell system, Corning, Midland, N.C.) containing Endothelial Growth Medium (Angio-Proteomie Cat #: cAP-02). The medium was renewed every other day. Five days after seeding, the medium was replaced with Endothelial Basal Medium (Angio-Proteomie Cat #: cAP-03) containing 0.5% FBS and incubated for 2 days. Following drug treatments, transendothelial electrical resistance (TEER) was measured by EVOM2 (Word Precision Instruments) as described previously (Li et al., 2006).
# [2] = system: tight junction proteins (ZO-1, Occludin, Claudin-5); assay: Immunofluorescence of tight junction proteins in isolated microvessels of diabetic mice; assay type: in vivo
# Experimental: Male laca mice weighing between 28-32 g were procured from the Central Animal House, Panjab University, Chandigarh. The animals were acclimatized and were fed with standard pellet diet and water ad libitum. The experimental protocols were approved by the Institutional Ethics Committee and were conducted according to Indian National Science Academy (INSA) guidelines for the use and care of experimental animals. The animals were divided into four groups: (i) Control animals received phosphate buffered saline (PBS) throughout the study; (ii) Control+GSNO animals were administered with GSNO 100 μg/kg body weight orally, dissolved in PBS after every 24 h for 8 weeks; (iii) Diabetic animals were injected with STZ at a dose of 40 mg/kg body weight intraperitoneally for 5 days dissolved in 0.1 mol/L citrate buffer, pH 4.5 and Diabetic+GSNO mice were administered GSNO 100 μg/kg body weight orally dissolved in PBS after every 24 h for 8 weeks after the induction of diabetes. Animals were assessed weekly for development of diabetic encephalopathy in terms of memory deficits. All experimental procedures were done on mice at the end of study.
# The microvessels were isolated by the method described by Brooks et al., (2005). Brain tissue was homogenized in microisolation buffer (103 mM NaCl, 4.7 mM KCl, 2.5 mM CaCb, 1.2 mM KH2PO4, 1.2 mM MgSO4, 15 mM HEPES, 2.5 mM NaHCO3, 10 mM D-glucose, 1 mM sodium pyruvate and 10 g/L dextran (64,000 mol wt), pH 7.4) and equal amount of 26% (w/v) dextran was added. The sample was then centrifuged at 5600 g for 10 min and pellets obtained were resuspended in microisolation buffer. Then the suspension was filtered through 70 μm filter (BD Biosciences, Gurgaon, India). […]
# Isolated microvessels were resuspended in PBS and allowed to attach to polylysine-coated slides for 30 min at 37° C. and fixed at 95° C. for 10 min. […] After placement and sealing of coverslips, photographs were taken with 40× objective on a Nikon TE-300 fluorescence microscope with a fluorescein filter (Schulze & Firth 1993).
# [3] = system: IFN-γ, IL-17; assay: IFN-γ and IL-17 in spinal cords of passively immunized EAE mice, ELISA; assay type: in vivo, SJL mice; conditions: T cells from GSNO treated vs untreated EAE mice
# Experimental: At the peak of EAE disease, the mice were sacrificed and CD4+ T cells were purified from draining lymph nodes (DLN) and spleens by CD4+ T cell isolation kit (Miltenyi, Auburn. Calif.). The purified T cells (2.5×10^6 cells/ml) were cultured in 96-well round-bottom microculture plates (Falcon Labware, Oxnard, Calif.) in RPMI-complete media containing RPMI 1640 (Life Technologies, Gaithersburg, Md.), 10% FBS, and 100 μg/ml streptomycin and penicillin (Atlanta Biologicals Norcross, Ga.), 1 mM glutamine, 1 mM nonessential amino acids, and 50 μM 2-mercaptoethanol (Sigma-Aldrich). For skewing of different CD4+ T cell subsets and their expansion, the isolated CD4+ T cells were stimulated with PLP139-151 (5 μg/ml) with IL-2 (10 ng/ml) for TH0, IL-2 (10 ng/ml), rhIL-12p35 (10 ng/ml), and anti-IL-4 (1 μg/ml) for TH1, or recombinant mouse IL-12/23p40 homodimer (10 ng/ml), anti-IFN-γ 1 (μg/ml), anti-IL-4 (1 μg/ml) for TO 17. All cytokines and antibodies were purchased from BD Biosciences (San Diego, Calif.). […]
# (20-30×10^6 T cells in 300 μl RPMI media per mouse) were injected to naive SJL female mice (8-10 week old) via intraperitoneal route. […] Clinical EAE disease was measured as describe above.
# [4] = microvessels of GSNO supplemented diabetic animals vs untreated diabetic group
structure (smiles),measurement,setting,value
"N[C@@H](CCC(=O)N[C@@H](CSN=O)C(=O)NCC(=O)O)C(=O)O [GSNO, S-nitrosoglutathione]",thrombin-induced loss of TEER,[1],inhibited
same,claudin-5 fluorescent intensity,[2]; GSNO treated diabetic animals,No change
same,fluorescent intensity for ZO-1,[2]; [4],increased fluorescent intensity
same,fluorescent intensity for occludin,[2]; [4],increased fluorescent intensity
same,IFN-γ in the spinal cords of passively immunized mice,[3],comparable levels
same,IL-17 in the spinal cords of passively immunized mice,[3],significantly lower levels
